The record followed here is PubChem BioAssay (NCI).

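Five concentrations, 48 hours, 96-well plates. Definition used: TGI = concentration required for complete inhibition of growth.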

Assay in all cases: DTP human tumour cell line panel, 48 h
Assay [1] deals with NCI-H226 lung.
Assay [2] deals with A549 NSCLC.
In assay [3] the test system is HCT-15 colon.
In assay [4] the test system is SW-620 colon.
For assay [5], the system named is HOP-92 NSCLC.
For assay [6], the system named is A498 renal.
In assay [7] the test system is SK-MEL-5 melanoma.
In assay [8] the test system is UACC-257 melanoma.
Assay [9] has as its system UACC-62 melanoma.
The test system of assay [10] is IGROV1 ovarian.

As usually defined, the TGI is the concentration at which net growth stops. Lower therefore signals greater sensitivity of the cells. On to `CC1Cc2cc(O)ccc2C2[C@@H]1C1CC[C@H](O)[C@@]1(C)C[C@@H]2O[N+](=O)[O-]` (stereo partly drawn), for which the TGI in assay [1] was more than 100 µM; in assay [2], 79.7 µM; in assay [3], more than 78.7 µM; in [4] it was more than 100 µM; in assay [5] it was 97.6 µM; in assay [6], 78.7 µM. Moreover, the TGI in [7] was 17.8 µM; in assay [8], 72.3 µM; in assay [9], 44 µM; in assay [10], more than 100 µM.

Regarding `Cn1cnc([N+](=O)[O-])c1Sc1nc(N)nc2c1ncn2Cc1ccccc1`, the concentration for total growth inhibition (TGI) in [1] is 60.2 µM; in assay [2], 84.8 µM; in [3] it was 45.8 µM; in assay [4], 78.2 µM; in [5], 35.9 µM; in [6] it was 68.3 µM. In addition, the TGI in [7] is 41.2 µM; in [8] it was 30.1 µM; in assay [9], 31.4 µM; in assay [10], more than 100 µM.

`CCOC(=O)/C=C/c1ccccn1`: the TGI in assay [1], in assay [2], in assay [3], in assay [4], in assay [5] and in assay [6] was more than 100 µM each time. The total growth inhibition concentration (TGI) in [7], in assay [8], in assay [9] and in assay [10] was more than 100 µM throughout.

As for `Cc1cc(C#N)c(Nc2c(C)cccc2[N+](=O)[O-])s1`, the TGI in [1] was more than 100 µM; in assay [2] it was more than 100 µM; in [3] it was more than 100 µM; in [4] it was more than 100 µM; in assay [5], 68.3 µM; in assay [6], more than 100 µM. The TGI in assay [8] and in assay [9] was more than 100 µM each time.

With `CC1OC(OC2CC(O)(C(=O)CO)Cc3c(O)c4c(c(O)c32)C(=O)c2ccccc2C4=O)CC(N)C1O` (stereo not drawn), the TGI was less than 0.0228 µM in [1]; 1.99 µM in assay [3]; 2.48 µM in assay [4]; 1.04 µM in assay [5]; 0.0526 µM in assay [6]; 0.0523 µM in assay [7]. In addition, the TGI stood at 0.326 µM in assay [8], 0.109 µM in assay [9] and 3.52 µM in assay [10].

For `CCOC1SC(SC)=NN1C(=O)C(OC(C)=O)C(OC(C)=O)C(OC(C)=O)C(OC(C)=O)C(=O)N1N=C(SC)SC1OCC` (stereo not drawn), the TGI in assay [1], in [2], in assay [3], in assay [4], in assay [5] and in assay [6] was more than 100 µM in each case. In addition, the TGI in assay [7], in [8], in assay [9] and in assay [10] was more than 100 µM in each case.

As to `C=C(C(=O)O)[C@@H]1C[C@@H]2O[C@H]1CC(C)=CCC/C(C)=C/CC[C@@]2(C)O`, the TGI in assay [1], in assay [2], in [3], in assay [4], in assay [5] and in [6] was more than 100 µM in each case. Besides, the TGI in [7], in [8], in assay [9] and in [10] was more than 100 µM throughout.

`CC1(C)OC(=S)N(c2ccccc2)C12C=Cc1cc3ccccc3cc1O2` (stereo not drawn): the total growth inhibition concentration (TGI) in [1], in [2], in [3], in assay [4], in assay [5] and in assay [6] was more than 100 µM in each case. Moreover, the TGI in [7], in assay [8], in [9] and in assay [10] was more than 100 µM each time.

On to `CCOP(C)(=O)C(Nc1ccc(F)cc1)c1ccc(F)cc1` (stereo not drawn), for which the TGI in [1], in [2], in [3], in [4], in assay [5] and in [6] was more than 100 µM throughout. Also, the concentration for total growth inhibition (TGI) in assay [7], in assay [8], in assay [9] and in [10] was more than 100 µM throughout.

`CCN(CC)C1=Nc2ccccc2-n2c(C)cnc2C1`: the TGI in [1], in [2], in assay [3], in assay [4], in [5] and in assay [6] was more than 100 µM in each case. For the same compound, the TGI in [7], in assay [8], in [9] and in [10] was more than 100 µM each time.

For the compound `N/N=C(\C(=O)Nc1ccc([N+](=O)[O-])cc1)C(C1=Nc2cc([N+](=O)[O-])ccc2NC1)[N+](=O)[O-]` (stereo not drawn), the TGI in assay [1], in [2], in assay [3], in [4], in [5] and in assay [6] was more than 100 µM each time. For the same compound, the concentration for total growth inhibition (TGI) in [7], in [8], in [9] and in assay [10] was more than 100 µM throughout.

With `O=C(O)C(F)(OC(F)(F)C(F)(OC(F)(F)C(F)(F)C(F)(F)F)C(F)(F)F)C(F)(F)F` (stereo not drawn), the TGI in assay [1], in [2], in assay [3], in assay [4], in assay [5] and in assay [6] was more than 100 µM in each case. Further, the TGI in assay [7], in assay [8], in [9] and in [10] was more than 100 µM each time.

Take `CN(C)/C=N/S(=O)(=O)c1nn2c(C=O)c(-c3ccc(-c4ccc([N+](=O)[O-])cc4)o3)nc2s1`: the TGI is more than 64.7 µM in assay [1]; more than 32.8 µM in assay [2]; 12.5 µM in [3]; more than 23.5 µM in [4]; 8.12 µM in assay [5]; 54.2 µM in [6]. Moreover, the TGI in assay [7] stood at 16.3 µM; in [8], 24.3 µM; in assay [9] it was 16.8 µM; in assay [10], 4.42 µM.

For the compound `CC(=O)NC(CCCCNC(=O)N(C)N=O)C(=O)NCc1ccccc1` (stereo not drawn), the TGI in [1], in assay [2], in assay [3], in assay [4], in assay [5] and in assay [6] was more than 100 µM each time. Besides, the TGI in assay [7], in [8], in assay [9] and in [10] was more than 100 µM throughout.

As to `Cc1cccc(NC(=S)N/N=C(/c2ccccc2)c2ccccn2)c1`, the TGI in assay [1] was found to be 6 µM; in assay [2], 14.3 µM; in assay [3] it was 16.5 µM; in assay [4], 20.4 µM; in assay [5], 15.7 µM; in assay [6], 13.7 µM. Also, the TGI in assay [7] came out at 7.18 µM; in assay [8], 1.57 µM; in [9], 15.5 µM; in [10], 16.7 µM.

As to `O=C(/C(=C/c1cccs1)c1ccccc1)c1ccccc1`, the total growth inhibition concentration (TGI) in assay [1], in assay [2], in [3], in assay [4], in [5] and in assay [6] was more than 100 µM throughout. The TGI in assay [7], in [8], in [9] and in [10] was more than 100 µM throughout.

For `O=C1O[C@H]2[C@@H]3OC(=O)c4cc(O)c(O)c(O)c4-c4c(cc(O)c(O)c4O)C(=O)OC[C@H]2O[C@@H](OC(=O)c2cc(O)c(O)c(O)c2)[C@@H]3OC(=O)c2cc(O)c(O)c3c2[C@@H]2C1=CC(=O)C(O)(O)C2(O)O3` (stereo partly drawn), the TGI in assay [1] was more than 100 µM; in assay [2] it was more than 100 µM; in assay [3], more than 100 µM; in [4], 38.5 µM; in assay [5], more than 100 µM; in [6], more than 100 µM. Moreover, the TGI in assay [7], in [8], in assay [9] and in [10] was more than 100 µM each time.

On to `O=C1C[C@H]2[C@H](c3ccc(Br)cc3)[C@H]3C(=O)c4ccccc4NC(=O)[C@@H]3[C@@]2(O)c2ccccc2N1`, for which the TGI is more than 100 µM in assay [1]; more than 100 µM in assay [2]; more than 100 µM in assay [3]; more than 100 µM in assay [4]; 4.96 µM in assay [5]; 78.8 µM in assay [6]. The TGI was determined as 62 µM in assay [7], 54.1 µM in assay [8], 61.5 µM in assay [9] and 33.4 µM in [10].

Consider `COc1cccc(-n2c(N)c(-c3nc4cc(C(F)(F)F)ccc4s3)c3ccc([N+](=O)[O-])cc3c2=O)c1`, for which the TGI in assay [1], in assay [2], in [3], in [5], in [6] and in [7] was more than 100 µM each time. Besides, the TGI in [8] and in assay [9] was more than 100 µM throughout.

As for `COc1ccc(-c2nnc(CCCCCCCCc3nnc(-c4ccc(OC)cc4)o3)o2)cc1`, the TGI in assay [1], in assay [2], in [3], in assay [4], in assay [5] and in [6] was more than 100 µM in each case. Moreover, the TGI in assay [7], in assay [8] and in assay [10] was more than 100 µM each time.

For the compound `C/C(=N\Nc1nc2ccccc2o1)c1ccncn1`, the concentration for total growth inhibition (TGI) in assay [1] is more than 100 µM; in assay [2], more than 32.7 µM; in assay [3] it was more than 58.1 µM; in assay [4], more than 39.3 µM; in assay [5], 6.05 µM; in assay [6] it was 10.7 µM. Further, the TGI was more than 81.6 µM in [7], more than 27.5 µM in assay [8] and 30.9 µM in assay [10].

Take `CCNCCNC(=O)c1ccc(Br)cc1`: the concentration for total growth inhibition (TGI) in assay [1], in [2], in assay [3], in assay [4], in assay [5] and in [6] was more than 100 µM each time. Moreover, the concentration for total growth inhibition (TGI) in assay [7], in assay [9] and in [10] was more than 100 µM throughout.

`CC(=O)OCc1cn(S(=O)(=O)c2ccc(C)cc2)cn1`: the concentration for total growth inhibition (TGI) in assay [1], in [2], in [3], in [4], in [5] and in assay [6] was more than 100 µM throughout. Also, the TGI in assay [7], in assay [9] and in assay [10] was more than 100 µM throughout.

As to `CN1CCN(c2ccc(-n3cc(C(=O)O)c(=O)c4cc(F)c(N5CCN(C)CC5)cc43)nc2)CC1`, the TGI in [1], in [2], in assay [3], in assay [4], in [5] and in [6] was more than 100 µM throughout. The TGI in [8], in assay [9] and in assay [10] was more than 100 µM each time.

In the case of `C[C@]12CCC(=O)C=C1CC[C@@H]1C2CC[C@]2(C)Nc3c(ncn3-c3ccc(F)cc3)CC12` (stereo partly drawn), the TGI in assay [1] is more than 100 µM; in [2], more than 100 µM; in assay [4], more than 100 µM; in assay [5] it was more than 100 µM; in assay [6] it was more than 100 µM; in assay [7] it was 29.7 µM. The figures for the TGI in assay [8], in [9] and in [10] were 66.2 µM, 54.4 µM and more than 100 µM, respectively.

Turning to `N#CC(c1cc(Cl)ncn1)c1nc2ccccc2s1` (stereo not drawn), the TGI in [1] was more than 100 µM; in [2], more than 100 µM; in assay [3], 15.6 µM; in [4], 22 µM; in [5] it was 11.1 µM; in [6], 68.6 µM. For the same compound, the TGI in assay [7] worked out at 33.1 µM; in [8] it was 32.2 µM; in [10] it was 22 µM.
